The values that follow are results of earlier work, collected in EP0268928A2, “Safened pesticidal dispersion resin compositions for controlling soil borne pests and process for the preparation thereof” (priority 1986, dated 1988).

This data set has as its system rats. To be noted: technical grade.

As to `CCOP(=S)(OCC)SCSCC` [phorate, 0,0-diethyl-S-(ethylthiomethyl)phosphorodithioate], the “acute oral LD50 value in rats” value is reported as 1.6-3.7 mg technical/kg.
